{"source": "patent US20240374763A1", "about": "“DIAGNOSIS AND MONITORING USING EXTRADOMAIN-B FIBRONECTIN TARGETED PROBES” (Case Western Reserve University, priority 2020, published 2024)", "key": {"[1]": {"system": "Hs578T tumors", "test": "MRMI-mediated monitoring of therapeutic response, Hs578T tumors", "type": "in vivo, mice", "conditions": "pretreatment Hs578T tumors, MT218 0.1 mmol/kg, first 30 min", "protocol": "The targeted MRI contrast agent ZD2-N3-Gd(HP-DO3A) (MT218) was provided by Molecular Theranostics (Cleveland, OH) and was synthesized. MR images of the mice bearing MDA-MB-231 or Hs578T tumors were acquired on a 3T MRS 3000 scanner (MRS Solutions, Surrey, UK) with a mouse short quad coil. T1-weighted images were acquired following intravenous injection of MT218 at dose of 0.1 mmol/kg using a fast spin echo (FSE) axial sequence with respiratory gating (TR=305 ms, TE=11 ms, FA=90°, FOV=40×40 mm, slice thickness=1 mm, slice number=15, Nav=2, matrix=256×256). Images were acquired before and at 10, 20, and 30 min after injection of MT218. MRMI was performed before the treatment and then at week 6 post-nanoparticle treatments for MDA-MB-231 and Hs578T tumors. MRI data and image processing was conducted using FIJI (FIJI is just ImageJ) software. The contrast-to-noise ratios (CNRs) of tumors were calculated as the difference of the mean tumor intensity and the mean muscle intensity divided by the standard deviation of the noise."}, "[2]": {"system": "RKO tumors", "test": "MRMI of EDB-FN with MT218, RKO xenografts", "type": "in vivo, mice", "conditions": "40 μmol/kg MT218, 25 min post-injection", "protocol": "Nude athymic mice (6-week-old nu/nu females) were purchased from The Jackson Laboratory (Bar Harbor, […]) and housed in the Animal Facility at CWRU. All the animal experiments were performed according to the protocol approved by the IACUC of CWRU. For assessment of drug resistance, 2 drug-resistant and 2 non-drug-resistant models were set up. About 3-4×10^6 DLD-1, RKO, DLD1-DR, and RKO-DR cells suspended in Matrigel-PBS mixture (1:1) were subcutaneously injected in the left flanks of nude mice (100 μL per mouse, 5 mice per group×4 models=20 mice). After 9 days when the tumors reached 100-200 mm3, MRMI was performed on the 4 xenograft models with 40 μmol/kg dose of MT218. The animals were then euthanized, and the tumors were harvested for post-mortem histology and IHC.\nMT218 was synthesized as previously described. Ayat, N. R., et al., ACS Med Chem Lett, 2018. 9(7): p. 730-735. Briefly, click reaction between alkynyl-ZD2 and N3-Gd(HP-DO3A) was performed in the presence of CuSO4 and ascorbate at room temperature, followed by FLASH chromatography purification and validation of MT218 by MALDI-TOF mass spectrometry (m.w. 1443). […] Contrast-to-noise ratios (CNRs) were calculated as (mean tumor intensity—mean muscle intensity)/standard deviation of noise. […]"}, "[3]": {"system": "PC3 tumors", "test": "MRMI with MT218, PC3 xenografts", "type": "in vivo, mice", "conditions": "0.04 mmol Gd/kg", "source_text": "(§1) Xenograft models were established by subcutaneous flank injections in athymic nu/nu mice for the 4 prostate cancer cells and tested with MRMI using 0.04 mmol Gd/kg of MT218."}, "[4]": {"system": "SCC4 tumors", "test": "MRMI of OSCC flank xenografts, SCC4", "type": "in vivo, mice", "conditions": "MT218 0.04 mmol/kg", "protocol": "Animal experiments were performed under an animal protocol approved by the Institutional Animal Care and Use Committee (IACUC) at Case Western Reserve University (CWRU, Cleveland, OH, USA). Female 4-week-old athymic nude mice purchased from the Jackson Laboratory (Bar Harbor, ME, USA) were housed in the Animal Core Facility at CWRU. Anesthetized mice were subcutaneously inoculated in the right flank with 4×10^6 GFP/luciferase-expressing OSCC cells (n=5 per cell line) in 100 μL of a 1:1 mixture of Matrigel HC (Corning) and DPBS. Tumor size was monitored with caliper measurements. After 4 weeks of growth, tumors were sufficiently large for MRI experiments.\nMRI experiments were performed with a 3T MRS-3000 system (MR Solutions, Surrey, UK). […] This protocol was repeated on the same mice 2 days later using the untargeted clinical agent gadoteridol at the clinical dose of 0.10 mmol/kg.\nImages were exported in DICOM format and analyzed using FIJI. Contrast-to-noise ratio (CNR) for each time point was calculated as the difference between the mean tumor intensity and the mean muscle intensity, divided by the standard deviation of noise."}, "[5]": {"test": "Relaxivity measurements", "type": "physicochemical", "protocol": "The T1 and T2 values of MT218 and Gd(HP-DO3A) solutions were determined using a 3T MRS 3000 scanner (MR Solutions, Guildford, UK). Solutions of MT218 were prepared at concentrations of 0, 0.25, 0.5, 1, and 2 mM in DPBS buffer (Gibco, Gaithersburg, MD). T1 values were measured using an inversion recovery-fast low angle shot (IR-FLASH) sequence (i=10 ms, TE=4 ms, FA=8°, echoes/frames=128, FOV=40 mm×40 mm, slice thickness =2 mm, number of averages=1, time delay=4000 ms, sample period=200, matrix=256×128). T2 values were obtained using a multi-echo multi-slice (MEMS) sequence (TE=15 ms, […], echoes=10, FOV: 40 mm×40 mm, slice thickness=1 mm, number of averages=1, matrix=256×192). The r1 and r2 relaxivities were calculated from the slopes of 1/T1 and 1/T2 vs. Gd concentration plots, respectively."}, "[6]": {"system": "LNCaP-CXCR2 tumors", "test": "MRMI with MT218, LNCaP-CXCR2 xenografts", "type": "in vivo, mice", "conditions": "0.04 mmol Gd/kg, 20 min post-injection", "source_text": "as §1"}}, "note": "No end group written: not given here.", "data": [{"substance": "ZD2-N3-Gd(HP-DO3A) (TVRTSAD; also: conjugated to Gd(HP-DO3A) by click reaction of alkynyl-ZD2 with N3-Gd(HP-DO3A), residue of attachment not given here, Gd complex) [MT218, EDB-FN-targeted MRI contrast agent; ZD2 peptide conjugated to the clinical macrocyclic agent Gd(HP-DO3A)]", "values": [{"measurement": "signal enhancement vs pre-contrast", "setting": "[1]", "value": "Strong signal enhancement"}, {"measurement": "increase in CNRs over the pre-contrast", "setting": "[2]", "value": 1.4, "unit": "fold"}, {"measurement": "CNR of PC3 tumors relative to PC3-DR tumors", "setting": "[3]", "value": 3.3, "unit": "fold"}, {"measurement": "CNR over the pre-contrast", "setting": "[3]; PC3 tumors, 20 min post-injection", "value": 5, "unit": "fold"}, {"measurement": "average maximum enhancement (CNR)", "setting": "[4]", "value": "3.81±0.25"}, {"measurement": "T1 relaxivity", "setting": "[5]; at 3T (Example 1)", "value": 6.13, "unit": "mM⁻¹ s⁻¹"}, {"measurement": "T1 relaxivity", "setting": "[5]; at 3 T, DPBS buffer", "value": "6.07 ± 1.13", "unit": "mM⁻¹ s⁻¹"}, {"measurement": "T2 relaxivity", "setting": "[5]; at 3 T, DPBS buffer", "value": "8.20 ± 0.18", "unit": "s⁻¹ mM⁻¹"}, {"measurement": "increase of CNR", "setting": "[6]", "value": "~3", "unit": "fold"}]}]}
